Counter-ions that a name gives are not always drawn.
Target: T1, human muscarinic receptors M3 (Homo sapiens, UniProt P20309)
T1 construct: expressed in transfected cells; host or cells: CHO-K1 (chinese hamster ovary-K1), stably transfected; membrane preparations
Experiment: biochemical
Assay type: binding
Details: for inhibition at 0.1 µM: read-out: % INHIBITION concentration: 1.00E−07 M; for inhibition at 0.01 µM: read-out: % INHIBITION concentration: 1.00E−08 M

T1 sequence (P20309 whole entry): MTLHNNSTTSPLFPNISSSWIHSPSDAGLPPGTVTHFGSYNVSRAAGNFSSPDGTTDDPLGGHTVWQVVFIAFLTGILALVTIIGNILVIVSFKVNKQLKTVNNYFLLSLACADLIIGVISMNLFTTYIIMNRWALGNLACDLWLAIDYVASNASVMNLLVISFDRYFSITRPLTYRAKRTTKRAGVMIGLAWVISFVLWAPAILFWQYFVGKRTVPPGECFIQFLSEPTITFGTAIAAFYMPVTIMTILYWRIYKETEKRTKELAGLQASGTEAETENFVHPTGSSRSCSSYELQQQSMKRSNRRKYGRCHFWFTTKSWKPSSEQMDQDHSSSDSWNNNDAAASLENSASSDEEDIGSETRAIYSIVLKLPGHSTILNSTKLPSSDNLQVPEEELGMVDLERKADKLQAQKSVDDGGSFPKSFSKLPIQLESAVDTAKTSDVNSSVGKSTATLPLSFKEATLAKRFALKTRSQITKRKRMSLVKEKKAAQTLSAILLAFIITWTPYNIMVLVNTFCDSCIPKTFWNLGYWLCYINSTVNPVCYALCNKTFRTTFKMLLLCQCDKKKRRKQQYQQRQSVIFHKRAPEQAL

SMILES | inhibition at 0.1 µM [%] | inhibition at 0.01 µM [%]
O=C(O[C@H]1C[N+]2(CCCSc3ccccc3)CCC1CC2)[C@](O)(c1cccs1)C1CCCC1 [Example 37, (3R)-3-[(2S)-2-Cyclopentyl-2-hydroxy-2-thien-2-ylacetoxy]-1-(3-phenylsulfanylpropyl)-1-azoniabicyclo[2.2.2]octane trifluoroacetate] | 88.1 | 72.6
O=C(O[C@H]1C[N+]2(CCc3ccccc3)CCC1CC2)[C@](O)(c1ccco1)C1CCCCC1 [Example 80, (3R)-3-[(2R)-2-Cyclohexyl-2-fur-2-yl-2-hydroxyacetoxy]-1-phenethyl-1-azoniabicyclo[2.2.2]octane trifluoroacetate] | 72.4 | 55.8
O=C(O[C@H]1C[N+]2(CCc3ccccc3)CCC1CC2)[C@@](O)(c1cccs1)C1CCCCC1 [Example 92, (3R)-3-[(2R)-2-Cyclohexyl-2-hydroxy-2-thien-2-ylacetoxy]-1-phenethyl-1-azoniabicyclo[2.2.2]octane trifluoroacetate] | 69.4 | 49.2
O=C(O[C@H]1C[N+]2(CCCOc3ccc(F)cc3F)CCC1CC2)[C@](O)(c1cccs1)C1CCCC1 [Example 43, (3R)-3-[(2S)-2-Cyclopentyl-2-hydroxy-2-thien-2-ylacetoxy]-1-[3-(2,4-difluorophenoxy)propyl]-1-azoniabicyclo[2.2.2]octane trifluoroacetate] | 83.4 | 58.7
O=C(O[C@H]1C[N+]2(CCCOc3ccccc3)CCC1CC2)[C@](O)(c1cccs1)C1CCCC1 [Example 22, (3R)-3-[(2S)-2-Cyclopentyl-2-hydroxy-2-thien-2-ylacetoxy]-1-(3-phenoxypropyl)-1-azoniabicyclo[2.2.2]octane bromide] | 81.5 | 72
O=C(O[C@H]1C[N+]2(CCCOc3ccccc3)CCC1CC2)[C@](O)(c1cccs1)C1CCCCC1 [Example 88, (3R)-3-[(2S)-2-Cyclohexyl-2-hydroxy-2-thien-2-ylacetoxy]-1-(3-phenoxypropyl)-1-azoniabicyclo[2.2.2]octane trifluoroacetate] | 65.5 | 35.7
O=C(O[C@H]1C[N+]2(CCOc3ccccc3)CCC1CC2)[C@](O)(c1cccs1)C1CCCC1 [Example 24, (3R)-3-[(2S)-2-Cyclopentyl-2-hydroxy-2-thien-2-ylacetoxy]-1-(2-phenoxyethyl)-1-azoniabicyclo[2.2.2]octane bromide] | 78 | 56.6
O=C(O[C@H]1C[N+]2(CCCOc3ccccc3)CCC1CC2)[C@](O)(c1ccco1)C1CCCC1 [Example 64, (3R)-3-[(2R)-2-Cyclopentyl-2-fur-2-yl-2-hydroxyacetoxy]-1-(3-phenoxypropyl)-1-azoniabicyclo[2.2.2]octane trifluoroacetate] | 78.6 | 64.5
O=C(O[C@H]1C[N+]2(CCc3ccccc3)CCC1CC2)[C@](O)(c1cccs1)C1CCCC1 [Example 25, (3R)-3-[(2S)-2-Cyclopentyl-2-hydroxy-2-thien-2-ylacetoxy]-1-phenethyl-1-azoniabicyclo[2.2.2]octane trifluoroacetate] | 76.1 | 62.6
O=C(O[C@H]1C[N+]2(CCCOc3ccc(F)cc3)CCC1CC2)[C@](O)(c1cccs1)C1CCCC1 [Example 28, (3R)-3-[(2S)-2-Cyclopentyl-2-hydroxy-2-thien-2-ylacetoxy]-1-[3-(4-fluorophenoxy)propyl]-1-azoniabicyclo[2.2.2]octane trifluoroacetate] | 78.3 | 60.6
CC(C)[N+]1(C)[C@@H]2CC[C@H]1C[C@@H](OC(=O)C(CO)c1ccccc1)C2 (stereo partly shown) [Ipratropium bromide, reference compound] | 93.8 | 67.2
